Measurements published in patent publication US20140051685A1, “THERAPEUTIC TREATMENT FOR METABOLIC SYNDROME, TYPE 2 DIABETES, OBESITY OR PREDIABETES” (priority 2010, published 2014).

Columns and labels:
Type in all cases: in vivo
[1] = system: obese, diabetic female ob/ob mice with mild diabetes; assay: GBR 12909 and clonidine, interactive effects on blood glucose in ob/ob mice; settings: GBR 12909 about 20 mg/kg, clonidine about 0.1 mg/kg, alone or together, once daily 14 days, controls 202±41
Experimental: GBR 12909 is a specific dopamine reuptake inhibitor. Its use can increase the dopaminergic to noradrenergic neuronal activity in the central nervous system. However, by combining GBR 12909 with clonidine, a noradrenergic alpha 2 receptor agonist with preferential affinity for presynaptic alpha 2 sites, it is possible to further increase the dopamine to noradrenaline neuronal activity ratio in the central nervous system. A study was conducted to determine the interactive effects of GBR 12909 and clonidine on blood glucose level in ob/ob mice.
Obese, diabetic female ob/ob mice (body weight of approximately 28 g) with mild diabetes were maintained on 14 hour daily photoperiods, housed one per cage and allowed to feed ad libitum. Different groups of these animals were randomized to once daily treatment with either a specific dopamine reuptake inhibitor, GBR 12909 at an approximate dose of 20 mg/kg body weight (n=4), or clonidine at an approximate dose of 0.1 mg/kg (n=5), these same dosages of GBR 12909 plus clonidine (n=3), or vehicle (control group; n=5-7) for a 14 day period. On the fifteenth day of the study and approximately 24 hours after the final treatment animals were sacrificed and blood samples were obtained for the analyses of blood glucose levels.

[2] = system: male mice fed a high fat diet; assay: GBR versus bupropion in mice fed a high fat diet
Experimental: The effect of increasing central dopamine neuronal activity versus increasing central dopamine plus norepinephirne neuronal activity on body fat, blood glucose, plasma insulin, and insulin sensitivity was studied in male mice fed a high fat diet from 4 weeks of age until 24 weeks of age. These mice were maintained on this high fat diet while treated with either GBR (20 mg/kg) (a selective dopamine reuptake inhibitor) or bupropion (20 mg/kg) (a dopamine and norepinpehrine reuptake inhibitor) at doses that approximate their 50% maximal effective dose for these functions in vivo in rodents.

[3] = system: obese, diabetic female (ob/ob) mice; assay: GBR 12909 once daily for 14 days in obese, diabetic ob/ob mice; settings: 30 mg/kg once daily
Experimental: GBR 12909 (1-(2-[bis(4-Fluorophenyl)methoxy]ethyl)-4-(3-phenylpropyl)piperazine dihydrochloride) is a specific dopamine reuptake inhibitor. Systemic administration of GBR 12909 can increase the dopaminergic to noradrenergic neuronal activity in the central nervous system. A study was conducted to determine the effects of GBR 12909 upon blood glucose and plasma free fatty acid levels in obese, diabetic mice (ob/ob strain). The ob/ob mouse is hyperphagic, obese, insulin resistant, diabetic and dyslipidemic due to the absence of functional leptin as a result of a mutation in this gene. Starvation or calorie restriction of these mice leads to increases in plasma free fatty acid levels that can function over the long term to worsen diabetes.
Different groups of obese, diabetic female (ob/ob) mice (body weight of approximately 33 g) maintained on 12 hour daily photoperiods, housed one per cage and allowed to feed ad libitum were randomized to once daily treatment with either a specific dopamine reuptake inhibitor, GBR 12909 at a dose of 30 mg/kg body weight (n=5-7) or vehicle (control group; n=5-7) for a 14 day period. On the fifteenth day of the study and approximately 24 hours after the final treatment animals were sacrificed and blood samples were obtained for the analyses of blood glucose and plasma free fatty acid and triglyceride levels.

[4] = system: female mice fed a high fat diet for 20 weeks; assay: GBR 12909 plus fusaric acid in mice fed a high fat diet; settings: for body weight (normalization): 2 weeks of treatment, normal weight for age matched controls=28 grams, FIG. 15; for plasma insulin levels compared to lean, insulin sensitive, non-diabetic mice: FIG. 12
Experimental: Female mice at 4 weeks of age were fed a high fat diet for 20 weeks to induce diabetes and insulin resistance and continued on such diet while treated for 14 days with either GBR 12909 (10 mg/kg), FA (15 mg/kg), GBR 12909 (10 mg/kg) plus FA (15 mg/kg), or vehicle and sacrificed after 14 days of treatment for the analyses of body fat, blood glucose, plasma insulin, and plasma nitric oxide levels. […] Only the GBR/FA group normalized plasma insulin levels. […] This effect was not observed with either GBR or FA treatments alone.

[5] = system: high fat fed, hypertensive SHR rats; assay: Quinelorane plus fusaric acid in high fat fed, hypertensive SHR rats; settings: SHR rats on high fat diet; for change from baseline body weight (weight loss): FA 12.5 mg/kg, 17 days, at 13 hours after light onset, FIGS. 1 and 2; for blood glucose level: FIG. 6
Experimental: Male SHR rats were maintained on 14 hour daily photoperiods and fed a high fat diet (60% of energy from fat; 5.24 kcal/gram weight) for 3 weeks and then divided into different groups and treated with either quinelorane (Q; a dopamine D2/D3 mixed receptor agonist) (0.075 mg/kg), fusaric acid (FA; a dopamine beta hydroxylase inhibitor) (12.5 mg/kg), quinelorane (0.075 mg/kg) plus FA (Q/FA) (12.5 mg/kg), or vehicle at 13 hours after light onset for 17 days. The doses of Q and FA were set at less than half maximal to effect central dopamine receptor binding functions and dopamine beta hydroxylase activity, respectively. […] Blood pressure measurements were taken at 14 days of treatment and animals were sacrificed at 18 days of treatment for analyses of body fat and humoral factors and metabolites. […] Respecting blood glucose, although both Q and FA reduced glucose level relative to vehicle, only the Q/FA regimen normalized blood glucose in these animals relative to vehicle (FIG. 6).

[6] = system: obese, diabetic female ob/ob mice; assay: Fusaric acid plus SKF 38393 in ob/ob mice; settings: fusaric acid 15 mg/kg, SKF 38393 10 mg/kg; for retroperitoneal fat pad weight / plasma triglyceride level: 14 days; for retroperitoneal fat pad weight: control value 727±25; for plasma triglyceride level: controls 155±15; for blood glucose: alone or both, once daily 14 days, controls 380±30
Experimental: Fusaric acid is a dopamine beta hydroxylase inhibitor that reduces noradrenaline synthesis in noradrenergic neurons. It is not present in dopaminergic neurons and thus exerts no such effect there. SKF38393 is a post-synaptic dopamine D1 receptor agonist with no marked influence on noradrenergic neurons. A study was conducted to determine the interactive effects of fusaric acid plus SKF 38393 on body fat store levels, and blood glucose and plasma triglyceride levels in ob/ob mice. The ob/ob mouse is hyperphagic, obese, insulin resistant, diabeteic and dyslipidemic due to the absence of functional leptin as a result of a mutation in this gene.
Obese, diabetic female ob/ob mice (body weight of approximately 33 g) maintained on 14 hour daily photoperiods, housed one per cage and allowed to feed ad libitum were randomized to once daily treatment with either fusaric acid (15 mg/kg; n=6-8), SKF 38393 (10 mg/kg; n=6-8), both fusaric acid (15 mg/kg) and SKF 38393 (10 mg/kg) (n=6-8), or vehicle (control group; n=6-8) for a 14 day period. On the fifteenth day of the study and approximately 24 hours after the final treatment animals were sacrificed and blood samples were obtained for the analyses of blood glucose, plasma free fatty acid and triglyceride levels. Relative to controls, fusaric acid raised blood glucose from 380±30 mg/dl to 430±30 mg/dl and SKF 38393 reduced blood glucose to 290±55 mg/dl. However, fusaric acid plus SKF 38393 reduced blood glucose to 180±20 mg/dl. […] Neither fusaric acid nor SKF 38393 had any effect on retroperitoneal fat pad weight (735±43 mg and 735±50 mg, respectively versus control value of 727±25 mg) however, the combination of fusaric acid plus SKF 38393 reduced retroperitoneal fat pad weight to 680±25 mg.

[7] = system: obese, diabetic female ob/ob mice; assay: Low dose amphetamine with or without bromocriptine in ob/ob mice; settings: amphetamine 3 mg/kg
Text: Amphetamine is a selective presynaptic dopamine release enhancer. It also acts as a presynaptic noradrenergic release enhancer but at higher dosages that will counter the effect of the dopamine reuptake inhibition activity to improve metabolism. However, addition of a dopamine D2 receptor agonist will act to reduce any amphetamine-induced increase in synaptic noradrenaline level and therefore should produce a more pronounced desired effect on metabolic disease than amphetamine or the D2 receptor agonist alone. A study was conducted to determine the effects of low dose amphetamine (3 mg/kg) with or without the dopamine D2 receptor agonist bromocriptine (5-<10 mg/kg dose) upon body weight gain, blood glucose, plasma free fatty acid and triglyceride levels in obese, diabetic mice (ob/ob strain). […] The ob/ob mouse is hyperphagic, obese, insulin resistant, diabetic and dyslipidemic due to the absence of functional leptin as a result of a mutation in this gene. Starvation or calorie restriction of these mice leads to increases in plasma free fatty acid levels that can function over the long term to worsen diabetes.
On the fifteenth day of the study and approximately 24 hours after the final treatment animals were sacrificed and blood samples were obtained for the analyses of blood glucose, plasma free fatty acid and triglyceride levels. […] Amphetamine had no effect on final body weight however, amphetamine plus bromocriptine reduced final body weight from 44±1 g to 39=/- 1.5 g.

[8] = system: female C57 Black mice fed a high simple sugar/moderate fat diet (western diet); assay: Body fat in C57 Black mice fed a western diet (GBR, FA, clonidine and combinations); settings: mice on western diet; GBR 25 mg/kg, FA 10 mg/kg, clonidine 0.075 mg/kg; 14 days; relative to vehicle and BC/SKF groups; FIG. 7
Experimental: Female C57 Black mice were maintained on a 12 hour daily photoperiod and fed a high simple sugar/moderate fat diet (western diet) for several weeks to induce obesity and then different groups of animals (n =5-8/group) were treated with either GBR 12909 (25 mg/kg), FA (10 mg/kg), clonidine (0.075 mg/kg), GBR (25 mg/kg) plus FA (10 mg/kg), GBR (25 mg/kg) plus clonidine (0.075 mg/kg), bromocriptine (10 mg/kg) plus SKF38393 (10 mg/kg), or vehicle and sacrificed after 14 days of treatment to analyze body fat store levels.

[9] = system: female obese diabetic mice (ob/ob strain); assay: Bupropion plus fusaric acid in ob/ob mice; settings: bupropion 40 mg/kg, FA 10 mg/kg, 14 days, relative to control, FIG. 9
Experimental: Female obese diabetic mice (ob/ob strain) at 6 weeks of age were fed standard rodent chow and different groups of animals (n=5-7/group) were treated with bupropion (40 mg/kg), FA (10 mg/kg), bupropion (40 mg/kg) plus FA (10 mg/kg), or vehicle for 14 days and then sacrificed for the analyses of blood glucose and body fat store level.

[10] = GBR 12909 10 mg/kg, FA 15 mg/kg, 14 days
[11] = relative to vehicle, 18 days of treatment

With Cl.Cl.Fc1ccc(C(OCCN2CCN(CCCc3ccccc3)CC2)c2ccc(F)cc2)cc1 [GBR 12909, 1-(2-[bis(4-Fluorophenyl)methoxy]ethyl)-4-(3-phenylpropyl)piperazine dihydrochloride] the blood glucose [1] was 221 ± 31 mg/dL, the “reducing plasma insulin, compared with bupropion at equal dose” value ([2]; 20 mg/kg each) was “much more effective” and the HOMA-IR values ([2]; GBR 20 mg/kg, compared to vehicle and Bupropion (20 mg/kg) groups, FIG. 19) was “significantly reduced”. For the same compound, the “body fat (intraabdominal fat pad)” value ([2]; GBR 20 mg/kg, compared to vehicle and Bupropion (20 mg/kg) treatment, FIG. 17) was “significantly reduced”, the blood glucose ([2]; GBR 20 mg/kg, relative to vehicle and Bupropion (20 mg/kg) groups, FIG. 18) was “significantly reduced” and the “reduction of plasma triglyceride level relative to controls” value [3] was “approximately 32%”. For the same compound, the blood glucose ([3]; about 24 hours after final treatment, controls 455±50) was 145 ± 25 mg/dL, the final body weight ([3]; controls 42±2) was 28 ± 0.5 g and the “plasma free fatty acid levels” value ([3]; controls 780±40) was 450 ± 20 µM. The “body weight (normalization)” value [4] was “not observed”, the blood glucose level ([4]; GBR 12909 10 mg/kg, FA 15 mg/kg, 14 days, FIG. 11) was “no significant effect” and the “plasma insulin levels compared to lean, insulin sensitive, non-diabetic mice” value [4, 10] was “significantly higher”.
With CCCN1CCC[C@@H]2Cc3nc(N)ncc3C[C@H]21 [Q] the “change from baseline body weight (weight loss)” value ([5]; Q 0.075 mg/kg) was “modest if any effects”, the “desensitization to the effects on weight loss” value ([5]; Q 0.075 mg/kg, weight regained to baseline values by treatment end) was “exhibited desensitization” and the “plasma endothelin-1 (endothelin 1-21 fragment) level” value [5, 11] was “no significant effect”. The “plasma nitric oxide level” value [5, 11] was “no significant effect” and the blood glucose level ([5]; relative to vehicle) was “reduced”.
For Cl.Oc1cc2c(cc1O)C(c1ccccc1)CNCC2 (centres unmarked) [SKF 38393, 1-phenyl-7,8-dihydroxy-2,3,4,5-tetrahydro-1H-3-benzazepine hydrochloride], the “retroperitoneal fat pad weight” value [6] was 735 ± 50 mg, the plasma triglyceride level [6] was 130 ± 7 mg/dL and the blood glucose [6] was 290 ± 55 mg/dL.
In the case of CC(N)Cc1ccccc1 (centres unmarked) [amphetamine], the “effect on final body weight” value ([7]; 14 days) is reported as “no effect”, the “plasma free fatty acid levels” value ([7]; 14 days, controls 900±100) is reported as 510 ± 30 µM and the plasma triglyceride levels ([7]; bromocriptine 5-<10 mg/kg, 14 days, controls 175±21) is reported as 70 ± 7 mg/dL. The blood glucose ([7]; bromocriptine 5-<10 mg/kg, once daily 14 days, controls 422±46) was 348 ± 22 mg/dL.
For Clc1cccc(Cl)c1NC1=NCCN1 [clonidine, 2-(2,6-dichloroanilino)-2-imidazoline], the blood glucose [1] was 250 ± 35 mg/dL and the “body fat store level (intraabdominal fat pad)” value [8] was “no effect”.
With CCCCc1ccc(C(=O)O)nc1 [fusaric acid, 5-butyl-2-pyridinecarboxylic acid] the blood glucose [9] was “no significant effect”, the “change from baseline body weight (weight loss)” value ([5]; Q 0.075 mg/kg) was “modest if any effects” and the “plasma C-reactive protein (CRP) level” value [5, 11] was “no significant effect”. The blood glucose level ([5]; relative to vehicle) was “reduced”, the “retroperitoneal fat pad weight” value [6] was 735 ± 43 mg and the plasma triglyceride level [6] was 170 ± 27 mg/dL. For the same compound, the blood glucose [6] was 430 ± 30 mg/dL, the “body weight (normalization)” value [4] was “not observed” and the “plasma insulin levels compared to lean, insulin sensitive, non-diabetic mice” value [4, 10] was “significantly higher”.
